Data set [1] can be described thus: Plasma protein binding in mouse. It counts as ADME, cell-free. The following applies: read-out: PPB.
For another data set, the target named is T1, P2X purinoceptor 4 (Homo sapiens, UniProt Q99571).
T1 sequence (Q99571 whole entry): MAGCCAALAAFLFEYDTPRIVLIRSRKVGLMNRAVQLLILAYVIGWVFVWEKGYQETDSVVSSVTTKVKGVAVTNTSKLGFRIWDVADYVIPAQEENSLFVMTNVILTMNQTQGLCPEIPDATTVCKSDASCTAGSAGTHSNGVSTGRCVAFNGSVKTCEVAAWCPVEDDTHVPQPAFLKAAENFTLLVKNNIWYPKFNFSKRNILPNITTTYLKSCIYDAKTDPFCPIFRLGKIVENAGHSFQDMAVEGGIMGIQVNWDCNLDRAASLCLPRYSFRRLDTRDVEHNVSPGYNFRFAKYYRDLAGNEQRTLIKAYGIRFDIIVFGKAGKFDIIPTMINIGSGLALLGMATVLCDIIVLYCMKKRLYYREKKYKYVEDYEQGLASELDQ
Put plainly: Antagonist activity at human P2X4 receptor.

Consider 2 molecules from ChEMBL document CHEMBL6109133, “Towards P2X4 Positron Emission Tomography Tracing” (J Med Chem, 2025).

By IC50 is commonly meant the concentration that gives 50% inhibition. Turning to `Cc1cc(F)ccc1CS(=O)(=O)Nc1ccc(N2C(=O)CC(=O)Nc3c2ccc2ccccc32)cc1`, the fraction unbound in data set [1] is < 0.02. Moreover, on P2X purinoceptor 4, the IC50 is 8 nM.

Consider `Cc1cc(F)ccc1S(=O)(=O)Nc1ccc(N2C(=O)CC(=O)Nc3c2ccc2ccccc32)cc1`, for which the fraction unbound in data set [1] was < 0.02. This molecule came in with an IC50 against P2X purinoceptor 4 of 64 nM.
